Measurements as given in patent US8609622B2, “C-aryl glucoside derivatives, preparation process and pharmaceutical use thereof” (Shanghai Hengrui Pharmaceutical Co., Ltd., priority 2010, dated 2013).
pIC50: −log10 of the molar value.

Experiments:
SGLT2 = SGLT2 (Homo sapiens (Human), UniProt P31639); test: SGLT2 activity measurement: [14C] methyl α-D-glucopyranoside uptake in SGLT2 instantaneous transfer strain; assay type: cell-based; conditions: SGLT2 transfected cells, 96-well plate, 15 min preincubation, 2 hours with [14C] methyl α-D-glucopyranoside at 37° C.
Protocol: (§1) Then each well of the 96-well plate was washed with 200 μL sodium-free buffer twice and 90 μL sodium-containing buffer solution containing test compounds having different concentrations was added, each of the test compounds having its corresponding concentration repeated in three wells. The compounds were incubated at 37° C. for 15 minutes and then each well of the 96-well plate was incubated with [14C] Methyl α-D-glucopyranoside (10 μL, totally 0.1 μCi) for another 2 hours at 37° C. Thereafter, supernatant was removed; the cell pellet was washed twice with precooling no-sodium buffer and lysed in 200 mM NaOH (100 μL). 100 μL scintillation fluid was added and mixed and 14C was quantitatively detected using liquid scintillation.
(§2) The IC50 values of the compounds can be calculated using the aggregation rate at different concentrations.

SGLT1 = SGLT1 (Homo sapiens (Human), UniProt P13866); test: SGLT1 activity measurement: [14C] methyl α-D-glucopyranoside uptake in SGLT1 instantaneous transfer strain; assay type: cell-based; conditions: SGLT1 transfected cells, 96-well plate, 15 min preincubation, 2 hours with [14C] methyl α-D-glucopyranoside at 37° C.
Protocol: as §1, §2

glucose-load mice = test: Preliminary evaluation of the hypoglycemic effect in glucose-load mice; assay type: in vivo; conditions: ICR mice, dose 1 mg/kg, 20% glucose solution 4 g/kg given 15 minutes after administering, blood glucose at minute 0, 15, 30, 45, 60, 120
Protocol: The purpose was to observe the effect of the test compounds on blood glucose levels of glucose-load mice. Determination and analysis of sugar content in the blood collected from the mouse tail was determined at different times within 2 hours of administration to provide preliminary evaluation of the hypoglycemic activity in vivo.
The experimental animals used were 24 healthy ICR mice (weighing 20-24 g), 12 female and 12 male, purchased from Shanghai Super—B&K laboratory animal Corp. Ltd., animal production license number: SCXK (Shanghai) 2008-0016.
To prepare the drug, a certain amount of compounds were weighed and dissolved in water (pure water OWN) and formulated into an aqueous solution of 0.1 mg/mL (5% DMSO for solubilization).
The administered dose was 1 mg/kg, blank and water groups (containing 5% DMSO).
20% glucose solution (4 g/kg, 0.8 mL each mouse) was given after 15 minutes of administration.
Administering in dose and measuring the blood glucose value (−15 minutes).

SGLT1, sequence (P13866 whole entry, species assumed): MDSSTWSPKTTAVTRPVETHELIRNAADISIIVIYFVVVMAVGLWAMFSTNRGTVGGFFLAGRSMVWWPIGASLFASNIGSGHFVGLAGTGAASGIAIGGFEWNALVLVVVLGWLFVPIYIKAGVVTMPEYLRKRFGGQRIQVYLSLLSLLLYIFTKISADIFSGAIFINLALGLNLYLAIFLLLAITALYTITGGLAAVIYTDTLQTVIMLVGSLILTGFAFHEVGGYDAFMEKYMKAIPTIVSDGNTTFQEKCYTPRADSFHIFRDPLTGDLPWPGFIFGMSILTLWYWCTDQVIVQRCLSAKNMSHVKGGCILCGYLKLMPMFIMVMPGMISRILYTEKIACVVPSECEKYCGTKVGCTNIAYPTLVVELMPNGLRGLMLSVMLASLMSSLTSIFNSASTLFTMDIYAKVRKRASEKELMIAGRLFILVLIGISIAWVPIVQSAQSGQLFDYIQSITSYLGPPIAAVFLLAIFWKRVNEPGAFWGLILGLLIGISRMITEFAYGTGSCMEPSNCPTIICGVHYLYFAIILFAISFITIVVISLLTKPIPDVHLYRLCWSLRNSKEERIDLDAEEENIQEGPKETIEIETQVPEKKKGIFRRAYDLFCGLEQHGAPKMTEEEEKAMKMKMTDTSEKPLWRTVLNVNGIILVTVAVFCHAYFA
SGLT2, sequence (P31639 whole entry, species assumed): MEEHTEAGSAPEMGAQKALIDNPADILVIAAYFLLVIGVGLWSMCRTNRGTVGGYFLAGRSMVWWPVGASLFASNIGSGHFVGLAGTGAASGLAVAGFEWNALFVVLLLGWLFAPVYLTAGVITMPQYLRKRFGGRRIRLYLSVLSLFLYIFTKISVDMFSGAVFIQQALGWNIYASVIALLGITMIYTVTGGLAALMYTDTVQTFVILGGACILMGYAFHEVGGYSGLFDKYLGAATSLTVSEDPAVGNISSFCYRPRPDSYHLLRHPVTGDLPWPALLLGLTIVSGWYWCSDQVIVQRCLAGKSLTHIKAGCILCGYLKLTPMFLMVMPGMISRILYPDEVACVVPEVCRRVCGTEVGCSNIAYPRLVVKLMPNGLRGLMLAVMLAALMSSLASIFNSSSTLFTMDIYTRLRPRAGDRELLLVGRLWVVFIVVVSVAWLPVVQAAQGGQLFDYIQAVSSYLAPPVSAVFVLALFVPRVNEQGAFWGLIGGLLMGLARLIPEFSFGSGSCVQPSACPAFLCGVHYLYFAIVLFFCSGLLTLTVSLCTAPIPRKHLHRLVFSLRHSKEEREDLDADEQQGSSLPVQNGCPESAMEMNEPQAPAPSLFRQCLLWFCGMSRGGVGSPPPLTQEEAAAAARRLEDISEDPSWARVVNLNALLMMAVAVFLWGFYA

Compound | pIC50 (SGLT2) | pIC50 (SGLT1) | AUC decline rate % (glucose-load mice)
CCOc1ccc(Cc2cc(C34OCC(CO)(O3)C(O)C(O)C4O)ccc2Cl)c(F)c1F (single isomer, unassigned) [Example 3] | 8.09 |  | 
CCOc1ccc(Cc2cc(C34OCC(CO)(O3)C(O)C(O)C4O)ccc2Cl)cc1F (single isomer, unassigned) [Example 4] | 8.16 |  | 
OCC12COC(c3ccc(Cl)c(Cc4ccc5c(c4)CCO5)c3)(O1)C(O)C(O)C2O (single isomer, unassigned) [Example 5] |  | 5.60 | 
OCC12COC(c3ccc(Cl)c(Cc4ccc(OCC(F)(F)F)cc4)c3)(O1)C(O)C(O)C2O (single isomer, unassigned) [Example 7] | 8.34 | 4.85 | 
Cc1ccc(C23OCC(CO)(O2)C(O)C(O)C3O)cc1Cc1ccc(-c2ccc(F)cc2)s1 (single isomer, unassigned) [Example 9] | 8.03 | 5.90 | 
OCC12COC(c3ccc(Cl)c(Cc4ccc(OCCOC5CC5)cc4)c3)(O1)[C@H](O)[C@@H](O)[C@@H]2O (stereo in doubt) [Example 1, (1S,2S,3S,4R,5S)-5-[4-chloro-3-[[4-[2-(cyclopropoxy)ethoxy]phenyl]methyl]phenyl]-1-(hydroxymethyl)-6,8-dioxabicyclo[3.2.1]octane-2,3,4-triol] | 8.02 | < 5.70 | 10.04%
COc1ccc(Cc2cc(C34OCC(CO)(O3)[C@@H](O)[C@H](O)[C@H]4O)ccc2Cl)c(F)c1F (stereo in doubt) [Example 2, (1S,2S,3S,4R,5S)-5-[4-chloro-3-[(2,3-difluoro-4-methoxy-phenyl)methyl]phenyl]-1-(hydroxymethyl)-6,8-dioxabicyclo[3.2.1]octane-2,3,4-triol] | 8.44 | < 5.70 | 12.95%
CCOc1ccc(Cc2cc(C34OCC(CO)(O3)[C@@H](O)[C@H](O)[C@H]4O)ccc2Cl)cc1F (stereo in doubt) [Example 4, (1S,2S,3S,4R,5S)-5-[4-chloro-3-[(4-ethoxy-3-fluoro-phenyl)methyl]phenyl]-1-(hydroxymethyl)-6,8-dioxabicyclo[3.2.1]octane-2,3,4-triol] |  |  | 15.88%
OCC12COC(c3ccc(Cl)c(Cc4ccc5c(c4)CCO5)c3)(O1)[C@H](O)[C@@H](O)[C@@H]2O (stereo in doubt) [Example 5, (1S,2S,3S,4R,5S)-5-[4-chloro-3-(2,3-dihydrobenzofuran-5-ylmethyl)phenyl]-1-(hydroxymethyl)-6,8-dioxabicyclo[3.2.1]octane-2,3,4-triol] |  |  | 14.13%
OCC12COC(c3ccc(Cl)c(Cc4ccc(OC(F)(F)F)cc4)c3)(O1)[C@H](O)[C@@H](O)[C@@H]2O (stereo in doubt) [Example 6, (1S,2S,3S,4R,5S)-5-[4-chloro-3-[[4-(trifluoromethoxy)phenyl]methyl]phenyl]-1-(hydroxymethyl)-6,8-dioxabicyclo[3.2.1]octane-2,3,4-triol] |  |  | 10.15%
OCC12COC(c3ccc(Cl)c(Cc4ccc(OCC(F)(F)F)cc4)c3)(O1)[C@H](O)[C@@H](O)[C@@H]2O (stereo in doubt) [Example 7, (1S,2S,3S,4R,5S)-5-[4-chloro-3-[[4-(2,2,2-trifluoroethoxy)phenyl]methyl]phenyl]-1-(hydroxymethyl)-6,8-dioxabicyclo[3.2.1]octane-2,3,4-triol] |  |  | 10.75%
[2H]C([2H])([2H])Oc1ccc(Cc2cc(C34OCC(CO)(O3)[C@@H](O)[C@H](O)[C@H]4O)ccc2Cl)cc1F (stereo in doubt) [Example 8, (1S,2S,3S,4R,5S)-5-[4-chloro-3-[[3-fluoro-4-(trideuteriomethoxy)phenyl]methyl]phenyl]-1-(hydroxymethyl)-6,8-dioxabicyclo[3.2.1]octane-2,3,4-triol] | 8.85 | 6.22 | 20.49%
[2H]C([2H])([2H])C([2H])([2H])Oc1ccc(Cc2cc(C34OCC(CO)(O3)[C@@H](O)[C@H](O)[C@H]4O)ccc2Cl)cc1F (stereo in doubt) [Example 10, (1S,2S,3S,4R,5S)-5-[4-chloro-3-[[3-fluoro-4-(1,1,2,2,2-pentadeuterioethoxy)phenyl]methyl]phenyl]-1-(hydroxymethyl)-6,8-dioxabicyclo[3.2.1]octane-2,3,4-triol] | 8.48 | 5.91 | 
[2H]C([2H])(c1ccc(OCC)c(F)c1)c1cc(C23OCC(CO)(O2)[C@@H](O)[C@H](O)[C@H]3O)ccc1Cl (stereo in doubt) [Example 11, (1S,2S,3S,4R,5S)-5-[4-chloro-3-[dideuterio-(4-ethoxy-3-fluoro-phenyl)methyl]phenyl]-1-(hydroxymethyl)-6,8-dioxabicyclo[3.2.1]octane-2,3,4-triol] | 8.20 | 5.45 | 
